From ChEMBL document CHEMBL1201862, “PubChem BioAssay data set” (2004)
Activity calls are given as the source filed them.

Assays:
[1] = control 3'UTR Renilla luciferase suppression, dose response, counter-screen for Shn3 inhibitor project, cell-based, Clone20-Shn3RL, cherry-picked (AID 624133); type: functional
[2] = target: T1, Short transient receptor potential channel 4 (Mus musculus, UniProt Q9QUQ5); test: mouse TRPC4 channel activators, dose response, cell-based, HEK293 TRPC4/mu-opioid, Fluo-4 calcium (AID 434937); type: functional
T1 sequence (Q9QUQ5 whole entry): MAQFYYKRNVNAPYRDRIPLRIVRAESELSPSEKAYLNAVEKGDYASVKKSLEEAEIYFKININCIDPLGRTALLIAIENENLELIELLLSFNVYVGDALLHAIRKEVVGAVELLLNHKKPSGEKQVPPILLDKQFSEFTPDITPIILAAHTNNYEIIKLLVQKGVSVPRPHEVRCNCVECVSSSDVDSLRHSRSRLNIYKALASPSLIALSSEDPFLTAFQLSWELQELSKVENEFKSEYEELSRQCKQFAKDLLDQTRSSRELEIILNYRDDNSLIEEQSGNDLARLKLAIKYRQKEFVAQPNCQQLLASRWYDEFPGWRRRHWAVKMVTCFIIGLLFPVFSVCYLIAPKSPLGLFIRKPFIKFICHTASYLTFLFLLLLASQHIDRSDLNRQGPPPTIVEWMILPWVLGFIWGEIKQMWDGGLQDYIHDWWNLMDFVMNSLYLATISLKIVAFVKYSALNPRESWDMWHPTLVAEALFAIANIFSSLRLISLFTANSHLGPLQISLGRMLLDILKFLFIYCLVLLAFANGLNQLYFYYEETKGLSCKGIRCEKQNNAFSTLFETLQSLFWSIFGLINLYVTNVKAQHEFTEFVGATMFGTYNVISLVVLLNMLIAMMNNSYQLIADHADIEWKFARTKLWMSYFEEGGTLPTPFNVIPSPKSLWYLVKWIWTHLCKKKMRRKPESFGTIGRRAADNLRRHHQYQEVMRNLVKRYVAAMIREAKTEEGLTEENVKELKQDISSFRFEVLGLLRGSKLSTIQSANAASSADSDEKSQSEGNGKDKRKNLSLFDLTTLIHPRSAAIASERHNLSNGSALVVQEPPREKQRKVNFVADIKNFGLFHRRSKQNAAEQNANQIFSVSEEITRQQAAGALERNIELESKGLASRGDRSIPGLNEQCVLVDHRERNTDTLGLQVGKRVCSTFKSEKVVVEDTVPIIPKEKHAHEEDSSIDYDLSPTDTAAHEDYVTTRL

[3] = inhibitors of SNCA 5'UTR-driven reporter translation, confirmation, H4 neuroglioma cells, luminescence (AID 1988); type: functional, cell-based
[4] = target: T2, Ubiquitin-conjugating enzyme E2 N (Homo sapiens, UniProt P61088); type: functional;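 note: Dose-response confirmation in a TR-FRET assay detecting UBC13-driven polyubiquitin chain formation, inhibition measured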
T2 sequence (P61088 whole entry): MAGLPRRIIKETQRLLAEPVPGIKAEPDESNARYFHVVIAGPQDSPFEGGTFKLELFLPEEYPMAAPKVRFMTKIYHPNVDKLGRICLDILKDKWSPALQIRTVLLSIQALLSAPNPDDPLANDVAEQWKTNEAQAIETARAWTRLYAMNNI

SUMO-activating enzyme = SUMO-activating enzyme (Homo sapiens, UniProt Q9UBT2); test: inhibitors of in vitro SUMOylation cascade, primary screen, biochemical, HTRF, uHTS (AID 2006); type: protein-complex assay
[5] = target: Tyrosine-protein kinase JAK2 (Homo sapiens, UniProt O60674); type: functional;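 note: JAK2 tested as one member of a kinase panel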
Sequence of Tyrosine-protein kinase JAK2 (O60674 whole entry): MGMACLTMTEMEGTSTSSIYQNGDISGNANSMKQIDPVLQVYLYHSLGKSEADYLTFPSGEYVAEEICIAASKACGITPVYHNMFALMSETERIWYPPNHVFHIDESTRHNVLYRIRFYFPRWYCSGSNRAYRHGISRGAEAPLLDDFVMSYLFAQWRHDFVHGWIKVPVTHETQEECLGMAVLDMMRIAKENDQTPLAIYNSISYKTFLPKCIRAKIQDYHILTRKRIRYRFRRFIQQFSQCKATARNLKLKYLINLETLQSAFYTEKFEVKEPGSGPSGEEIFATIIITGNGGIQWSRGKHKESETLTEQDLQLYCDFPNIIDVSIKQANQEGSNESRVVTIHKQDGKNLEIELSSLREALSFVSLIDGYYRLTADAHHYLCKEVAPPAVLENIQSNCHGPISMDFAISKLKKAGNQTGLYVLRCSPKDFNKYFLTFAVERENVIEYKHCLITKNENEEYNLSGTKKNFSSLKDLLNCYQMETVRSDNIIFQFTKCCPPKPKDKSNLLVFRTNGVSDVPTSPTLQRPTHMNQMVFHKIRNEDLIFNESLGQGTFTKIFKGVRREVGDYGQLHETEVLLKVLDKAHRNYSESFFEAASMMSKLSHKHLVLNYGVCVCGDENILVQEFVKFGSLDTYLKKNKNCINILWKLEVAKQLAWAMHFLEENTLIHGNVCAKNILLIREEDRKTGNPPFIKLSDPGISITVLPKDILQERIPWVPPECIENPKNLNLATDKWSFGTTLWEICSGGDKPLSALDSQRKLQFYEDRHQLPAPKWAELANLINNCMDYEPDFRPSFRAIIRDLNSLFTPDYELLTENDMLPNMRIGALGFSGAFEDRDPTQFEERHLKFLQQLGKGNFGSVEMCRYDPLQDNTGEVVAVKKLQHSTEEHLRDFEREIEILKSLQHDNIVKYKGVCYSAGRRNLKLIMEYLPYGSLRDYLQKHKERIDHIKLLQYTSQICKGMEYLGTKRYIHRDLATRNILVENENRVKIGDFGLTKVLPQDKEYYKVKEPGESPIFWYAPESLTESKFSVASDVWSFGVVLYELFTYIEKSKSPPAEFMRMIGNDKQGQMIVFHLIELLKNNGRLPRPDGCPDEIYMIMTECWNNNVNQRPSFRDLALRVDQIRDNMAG

[6] = target: Dual specificity protein kinase CLK4 (Homo sapiens, UniProt Q9HAZ1); type: functional
Sequence of Dual specificity protein kinase CLK4 (Q9HAZ1 whole entry): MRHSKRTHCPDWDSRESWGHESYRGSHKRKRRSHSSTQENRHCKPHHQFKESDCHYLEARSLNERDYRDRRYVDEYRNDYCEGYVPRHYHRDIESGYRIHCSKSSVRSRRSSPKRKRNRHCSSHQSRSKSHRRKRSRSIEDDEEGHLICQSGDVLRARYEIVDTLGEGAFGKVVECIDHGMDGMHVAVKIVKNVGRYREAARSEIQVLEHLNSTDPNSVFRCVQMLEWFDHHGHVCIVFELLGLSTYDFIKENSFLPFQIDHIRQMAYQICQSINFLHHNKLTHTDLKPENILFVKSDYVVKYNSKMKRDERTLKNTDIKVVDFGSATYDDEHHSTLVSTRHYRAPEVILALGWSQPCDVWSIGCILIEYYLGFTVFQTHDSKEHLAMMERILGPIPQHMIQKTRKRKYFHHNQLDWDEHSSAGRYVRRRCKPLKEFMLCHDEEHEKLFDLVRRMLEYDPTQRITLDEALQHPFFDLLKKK

[7] = target: Non-receptor tyrosine-protein kinase TYK2 (Homo sapiens, UniProt P29597); type: functional
[8] = target: Mitogen-activated protein kinase kinase kinase kinase 2 (Homo sapiens, UniProt Q12851); type: functional;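 note: measured as one member of a kinome-wide kinase panel, with MAP4K2 as the panel entry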
Sequence of Mitogen-activated protein kinase kinase kinase kinase 2 (Q12851 whole entry): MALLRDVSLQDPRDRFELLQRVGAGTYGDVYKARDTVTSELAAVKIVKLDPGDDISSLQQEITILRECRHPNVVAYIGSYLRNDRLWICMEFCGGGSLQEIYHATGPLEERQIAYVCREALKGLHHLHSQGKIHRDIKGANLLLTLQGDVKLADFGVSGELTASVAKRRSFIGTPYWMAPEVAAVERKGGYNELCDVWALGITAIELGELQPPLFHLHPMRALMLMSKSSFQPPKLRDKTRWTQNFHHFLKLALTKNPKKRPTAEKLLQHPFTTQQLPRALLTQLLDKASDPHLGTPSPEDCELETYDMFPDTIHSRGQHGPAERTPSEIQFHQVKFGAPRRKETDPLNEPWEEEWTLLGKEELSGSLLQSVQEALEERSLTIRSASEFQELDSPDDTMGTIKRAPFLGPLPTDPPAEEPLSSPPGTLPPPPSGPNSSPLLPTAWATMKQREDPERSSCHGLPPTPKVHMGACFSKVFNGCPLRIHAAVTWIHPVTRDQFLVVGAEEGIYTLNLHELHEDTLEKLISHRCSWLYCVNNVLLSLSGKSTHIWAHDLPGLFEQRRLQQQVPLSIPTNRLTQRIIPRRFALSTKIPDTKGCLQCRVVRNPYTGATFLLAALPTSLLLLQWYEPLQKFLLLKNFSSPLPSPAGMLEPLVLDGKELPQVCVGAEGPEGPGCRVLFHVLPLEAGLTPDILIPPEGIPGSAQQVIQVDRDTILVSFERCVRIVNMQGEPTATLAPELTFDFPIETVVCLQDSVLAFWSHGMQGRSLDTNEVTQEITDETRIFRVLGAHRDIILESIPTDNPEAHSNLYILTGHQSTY

[9] = target: Serine/threonine-protein kinase N2 (Homo sapiens, UniProt Q16513); type: functional
Sequence of Serine/threonine-protein kinase N2 (Q16513 whole entry): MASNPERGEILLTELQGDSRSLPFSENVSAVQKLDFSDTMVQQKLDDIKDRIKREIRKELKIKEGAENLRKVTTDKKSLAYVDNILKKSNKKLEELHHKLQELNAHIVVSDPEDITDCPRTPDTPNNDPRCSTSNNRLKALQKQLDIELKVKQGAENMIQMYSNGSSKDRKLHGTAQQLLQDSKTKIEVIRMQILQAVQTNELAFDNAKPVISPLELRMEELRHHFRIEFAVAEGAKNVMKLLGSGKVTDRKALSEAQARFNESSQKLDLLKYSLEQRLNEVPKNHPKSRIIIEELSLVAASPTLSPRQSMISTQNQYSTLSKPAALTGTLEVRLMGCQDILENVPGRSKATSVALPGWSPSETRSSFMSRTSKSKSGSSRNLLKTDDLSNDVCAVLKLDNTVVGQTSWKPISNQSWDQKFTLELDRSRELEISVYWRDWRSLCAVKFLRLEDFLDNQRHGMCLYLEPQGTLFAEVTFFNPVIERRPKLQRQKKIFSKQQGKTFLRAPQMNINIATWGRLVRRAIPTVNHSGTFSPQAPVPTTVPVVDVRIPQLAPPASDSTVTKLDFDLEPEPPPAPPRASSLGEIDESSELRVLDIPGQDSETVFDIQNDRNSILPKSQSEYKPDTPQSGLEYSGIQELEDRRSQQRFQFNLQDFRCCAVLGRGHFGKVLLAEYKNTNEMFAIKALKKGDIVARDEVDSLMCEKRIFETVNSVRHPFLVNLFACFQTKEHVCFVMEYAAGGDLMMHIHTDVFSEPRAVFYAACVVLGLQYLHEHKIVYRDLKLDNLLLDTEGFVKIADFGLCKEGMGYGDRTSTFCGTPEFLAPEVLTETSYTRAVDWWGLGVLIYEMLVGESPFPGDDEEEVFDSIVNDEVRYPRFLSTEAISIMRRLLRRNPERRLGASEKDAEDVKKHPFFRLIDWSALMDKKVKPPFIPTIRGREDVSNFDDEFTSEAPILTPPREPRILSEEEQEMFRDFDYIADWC

[10] = target: Serine/threonine-protein kinase D2 (Homo sapiens, UniProt Q9BZL6); type: functional;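 note: measured against PRKD2 as one member of a kinome-wide kinase profiling panel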
[11] = target: 5'-AMP-activated protein kinase catalytic subunit alpha-1 (Homo sapiens, UniProt Q13131); type: functional
[12] = target: 3-phosphoinositide-dependent protein kinase 1 (Homo sapiens, UniProt O15530); type: functional;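 note: value comes from the Navigating the Kinome panel, PDPK1 member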
Sequence of 3-phosphoinositide-dependent protein kinase 1 (O15530 whole entry): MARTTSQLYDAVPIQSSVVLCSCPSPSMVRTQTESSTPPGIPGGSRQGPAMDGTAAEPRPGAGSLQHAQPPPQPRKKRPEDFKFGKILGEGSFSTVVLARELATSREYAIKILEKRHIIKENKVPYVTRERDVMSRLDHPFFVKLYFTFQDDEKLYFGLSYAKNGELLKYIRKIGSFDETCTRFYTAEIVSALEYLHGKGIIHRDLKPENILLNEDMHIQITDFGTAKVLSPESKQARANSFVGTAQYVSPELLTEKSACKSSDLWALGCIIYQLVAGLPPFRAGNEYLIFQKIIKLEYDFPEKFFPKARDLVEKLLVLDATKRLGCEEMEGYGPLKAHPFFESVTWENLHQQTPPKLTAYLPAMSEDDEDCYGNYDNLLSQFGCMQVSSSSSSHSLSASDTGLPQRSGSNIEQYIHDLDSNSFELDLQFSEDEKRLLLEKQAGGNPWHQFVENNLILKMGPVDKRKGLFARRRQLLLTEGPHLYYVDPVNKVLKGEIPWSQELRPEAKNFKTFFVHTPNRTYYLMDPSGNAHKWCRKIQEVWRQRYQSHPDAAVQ

Aurora kinase B = Aurora kinase B (Homo sapiens, UniProt Q96GD4); type: functional
[13] = target: Cyclin-dependent kinase 5 (Homo sapiens, UniProt Q00535); type: functional;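 note: CDK5 measured as one member of a kinase profiling panel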
Ephrin type-A receptor 2 = Ephrin type-A receptor 2 (Homo sapiens, UniProt P29317); type: functional;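 note: EPHA2 tested as one member of a kinome-wide kinase panel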
Sequence of Ephrin type-A receptor 2 (P29317 whole entry): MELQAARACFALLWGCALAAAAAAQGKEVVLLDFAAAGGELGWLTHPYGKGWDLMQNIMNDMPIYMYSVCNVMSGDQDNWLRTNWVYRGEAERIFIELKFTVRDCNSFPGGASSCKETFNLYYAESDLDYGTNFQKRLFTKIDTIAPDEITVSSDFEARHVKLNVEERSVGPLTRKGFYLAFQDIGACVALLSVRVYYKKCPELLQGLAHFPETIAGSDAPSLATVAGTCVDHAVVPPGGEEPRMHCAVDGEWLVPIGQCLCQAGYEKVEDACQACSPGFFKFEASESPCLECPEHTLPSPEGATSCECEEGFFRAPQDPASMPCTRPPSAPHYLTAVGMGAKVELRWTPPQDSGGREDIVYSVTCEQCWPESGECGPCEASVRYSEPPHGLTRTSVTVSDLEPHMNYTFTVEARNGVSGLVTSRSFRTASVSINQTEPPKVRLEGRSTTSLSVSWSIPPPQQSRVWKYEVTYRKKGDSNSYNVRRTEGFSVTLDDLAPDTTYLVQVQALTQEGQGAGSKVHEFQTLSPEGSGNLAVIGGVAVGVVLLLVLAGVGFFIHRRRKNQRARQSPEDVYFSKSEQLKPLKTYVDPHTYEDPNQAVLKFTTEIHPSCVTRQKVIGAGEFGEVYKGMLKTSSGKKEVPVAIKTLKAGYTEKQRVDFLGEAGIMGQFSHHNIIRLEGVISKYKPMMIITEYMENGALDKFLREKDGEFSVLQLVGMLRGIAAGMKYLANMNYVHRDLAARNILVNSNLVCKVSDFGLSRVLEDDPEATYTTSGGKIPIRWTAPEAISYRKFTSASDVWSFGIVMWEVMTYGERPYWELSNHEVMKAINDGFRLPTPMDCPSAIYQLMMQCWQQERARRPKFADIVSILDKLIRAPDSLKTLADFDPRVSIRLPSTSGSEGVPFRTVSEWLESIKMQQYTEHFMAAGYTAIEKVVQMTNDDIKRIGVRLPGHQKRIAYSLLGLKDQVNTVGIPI

With CC[C@@H](C)[C@H](CNC)NC[C@@H](Cc1cccc2ccccc12)NCCc1cccc(C(F)(F)F)c1 the AC50 [1] was 3.28 µM (active), the EC50 [2] was 9.44 µM (active) and the EC50 [3] was 7.84 µM (active). The IC50 [4] was > 20 µM (inactive).

With Cc1ccc(C(=O)NC2(O)C(=O)c3ccccc3C2=O)cc1C the IC50 (SUMO-activating enzyme) was 5.71 µM (active).

In the case of CC(C)(CO)CNc1nccc(-c2c(-c3ccc(F)cc3)nc3c(CC4CC4)nccn23)n1, the Ki [5] is reported as > 1.58 µM (inactive), the Ki [6] is reported as 3.98 µM (active) and the Ki [7] is reported as > 2 µM (inactive). The Ki [8] was > 6.31 µM (inactive), the Ki [9] was > 7.94 µM (inactive) and the Ki [10] was > 10 µM (inactive). For the same compound, the Ki [11] was > 6.31 µM (inactive), the Ki [12] was > 3.98 µM (inactive) and the Ki (Aurora kinase B) was > 6.31 µM (inactive). The Ki [13] was > 10 µM (inactive) and the Ki (Ephrin type-A receptor 2) was > 3.16 µM (inactive).
